Measurements reported in the kinase profiling compilation of Christmann-Franck et al. (2016).
Values joined by “and” are separate entries in the source; they are usually repeats but may differ in a detail not shown here. Equal entries are not always repeated.

How the values were obtained:
Assay in all cases: radiometric filter-binding kinase assay, Kinase HotSpot
Settings in all cases: compound 0.5 µM; ATP 10 µM
CHEK2 (human) = CHEK2 (human) (UniProt O96017)
FGFR2 (human) = FGFR2 (human) (UniProt P21802)
PRKG1 (human) = PRKG1 (human) (UniProt Q13976)
CSK (human) = CSK (human) (UniProt P41240)
DMPK (human) = DMPK (human) (UniProt Q09013)
PNCK (human) = PNCK (human) (UniProt Q6P2M8)
JAK3 JH1 JH2 (human) = JAK3 JH1 JH2 (human) (UniProt P52333)
TYRO3 (human) = TYRO3 (human) (UniProt Q06418)
NEK3 (human) = NEK3 (human) (UniProt P51956)
BTK (human) = BTK (human) (UniProt Q06187)
MST1R (human) = MST1R (human) (UniProt Q04912)
STK10 (human) = STK10 (human) (UniProt O94804)
STK3 (human) = STK3 (human) (UniProt Q13188)
MAP3K8 (human) = MAP3K8 (human) (UniProt P41279)
BMX (human) = BMX (human) (UniProt P51813)
ULK3 (human) = ULK3 (human) (UniProt Q6PHR2)
IRAK4 (human) = IRAK4 (human) (UniProt Q9NWZ3)
SRC (human) = SRC (human) (UniProt P12931)
DAPK3 (human) = DAPK3 (human) (UniProt O43293)
PLK1 (human) = PLK1 (human) (UniProt P53350)
GRK4 (human) = GRK4 (human) (UniProt P32298)
DYRK2 (human) = DYRK2 (human) (UniProt Q92630)
FER (human) = FER (human) (UniProt P16591)
RPS6KA4 KD2 (human) = RPS6KA4 KD2 (human) (UniProt O75676)
EPHB4 (human) = EPHB4 (human) (UniProt P54760)
TLK2 (human) = TLK2 (human) (UniProt Q86UE8)
GRK7 (human) = GRK7 (human) (UniProt Q8WTQ7)
MAPK12 (human) = MAPK12 (human) (UniProt P53778)
MYLK (human) = MYLK (human) (UniProt Q15746)
RPS6KA2 KD1 KD2 (human) = RPS6KA2 KD1 KD2 (human) (UniProt Q15349)
EPHA5 (human) = EPHA5 (human) (UniProt P54756)
GSK3B (human) = GSK3B (human) (UniProt P49841)
SGK2 (human) = SGK2 (human) (UniProt Q9HBY8)
MLTK (human) = MLTK (human) (UniProt Q9NYL2)
FGFR4 (human) = FGFR4 (human) (UniProt P22455)
HIPK1 (human) = HIPK1 (human) (UniProt Q86Z02)
AURKA (human) = AURKA (human) (UniProt O14965)
CDK6 CCND3 (human) = CDK6 CCND3 (human) (UniProt P30281+Q00534)
PKN1 (human) = PKN1 (human) (UniProt Q16512)
CSNK2A1 (human) = CSNK2A1 (human) (UniProt P68400)
MARK2 (human) = MARK2 (human) (UniProt Q7KZI7)
LYN (human) = LYN (human) (UniProt P07948)

Sequence of MST1R (human) (Q04912 whole entry, looked up): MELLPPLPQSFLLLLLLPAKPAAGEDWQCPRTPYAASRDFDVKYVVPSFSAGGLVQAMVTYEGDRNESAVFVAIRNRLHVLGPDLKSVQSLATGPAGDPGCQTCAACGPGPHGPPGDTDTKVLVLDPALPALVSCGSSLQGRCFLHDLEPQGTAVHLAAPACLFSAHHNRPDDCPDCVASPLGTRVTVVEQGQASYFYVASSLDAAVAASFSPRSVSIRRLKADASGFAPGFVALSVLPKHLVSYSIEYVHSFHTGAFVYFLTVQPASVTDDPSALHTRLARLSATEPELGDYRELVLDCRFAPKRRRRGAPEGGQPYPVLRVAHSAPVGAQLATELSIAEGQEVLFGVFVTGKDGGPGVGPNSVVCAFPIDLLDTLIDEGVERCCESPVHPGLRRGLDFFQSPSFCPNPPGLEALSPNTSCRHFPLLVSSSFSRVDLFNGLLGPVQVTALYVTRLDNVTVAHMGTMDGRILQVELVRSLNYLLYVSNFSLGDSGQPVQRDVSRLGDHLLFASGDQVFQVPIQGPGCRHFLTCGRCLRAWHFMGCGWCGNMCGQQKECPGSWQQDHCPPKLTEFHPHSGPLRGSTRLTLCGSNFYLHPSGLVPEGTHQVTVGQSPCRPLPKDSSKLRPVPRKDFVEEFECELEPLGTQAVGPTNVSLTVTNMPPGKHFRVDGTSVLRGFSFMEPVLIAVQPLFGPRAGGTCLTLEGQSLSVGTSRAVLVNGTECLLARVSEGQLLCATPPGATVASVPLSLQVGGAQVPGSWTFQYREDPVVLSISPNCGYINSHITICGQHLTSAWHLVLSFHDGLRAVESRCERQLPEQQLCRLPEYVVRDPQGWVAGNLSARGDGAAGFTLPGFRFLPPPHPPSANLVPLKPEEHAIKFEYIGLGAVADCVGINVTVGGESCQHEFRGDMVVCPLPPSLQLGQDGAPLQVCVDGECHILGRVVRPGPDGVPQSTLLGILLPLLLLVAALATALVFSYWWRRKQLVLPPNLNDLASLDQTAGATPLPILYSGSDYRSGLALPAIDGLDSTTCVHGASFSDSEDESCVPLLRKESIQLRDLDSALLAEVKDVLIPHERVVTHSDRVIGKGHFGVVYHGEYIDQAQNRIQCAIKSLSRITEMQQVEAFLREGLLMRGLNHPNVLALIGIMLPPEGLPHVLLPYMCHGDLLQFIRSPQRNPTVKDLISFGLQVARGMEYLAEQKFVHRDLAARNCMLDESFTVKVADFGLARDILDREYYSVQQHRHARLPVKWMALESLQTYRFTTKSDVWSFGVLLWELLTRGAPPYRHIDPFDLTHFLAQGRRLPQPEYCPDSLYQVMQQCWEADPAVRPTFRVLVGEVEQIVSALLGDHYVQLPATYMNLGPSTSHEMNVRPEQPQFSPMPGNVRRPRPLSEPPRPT
Sequence of IRAK4 (human) (Q9NWZ3 whole entry, looked up): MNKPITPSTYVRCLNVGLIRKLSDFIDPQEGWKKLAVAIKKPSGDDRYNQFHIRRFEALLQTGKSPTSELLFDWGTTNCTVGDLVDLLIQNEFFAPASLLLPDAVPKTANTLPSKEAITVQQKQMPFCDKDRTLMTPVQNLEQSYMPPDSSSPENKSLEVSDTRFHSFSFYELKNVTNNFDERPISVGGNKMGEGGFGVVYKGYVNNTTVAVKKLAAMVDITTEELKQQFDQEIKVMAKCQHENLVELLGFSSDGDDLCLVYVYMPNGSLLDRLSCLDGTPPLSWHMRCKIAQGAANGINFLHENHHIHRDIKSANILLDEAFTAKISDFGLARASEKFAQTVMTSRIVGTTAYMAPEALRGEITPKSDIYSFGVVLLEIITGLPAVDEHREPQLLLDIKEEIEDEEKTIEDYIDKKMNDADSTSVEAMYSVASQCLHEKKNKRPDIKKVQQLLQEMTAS
Sequence of FGFR2 (human) (P21802 whole entry, looked up): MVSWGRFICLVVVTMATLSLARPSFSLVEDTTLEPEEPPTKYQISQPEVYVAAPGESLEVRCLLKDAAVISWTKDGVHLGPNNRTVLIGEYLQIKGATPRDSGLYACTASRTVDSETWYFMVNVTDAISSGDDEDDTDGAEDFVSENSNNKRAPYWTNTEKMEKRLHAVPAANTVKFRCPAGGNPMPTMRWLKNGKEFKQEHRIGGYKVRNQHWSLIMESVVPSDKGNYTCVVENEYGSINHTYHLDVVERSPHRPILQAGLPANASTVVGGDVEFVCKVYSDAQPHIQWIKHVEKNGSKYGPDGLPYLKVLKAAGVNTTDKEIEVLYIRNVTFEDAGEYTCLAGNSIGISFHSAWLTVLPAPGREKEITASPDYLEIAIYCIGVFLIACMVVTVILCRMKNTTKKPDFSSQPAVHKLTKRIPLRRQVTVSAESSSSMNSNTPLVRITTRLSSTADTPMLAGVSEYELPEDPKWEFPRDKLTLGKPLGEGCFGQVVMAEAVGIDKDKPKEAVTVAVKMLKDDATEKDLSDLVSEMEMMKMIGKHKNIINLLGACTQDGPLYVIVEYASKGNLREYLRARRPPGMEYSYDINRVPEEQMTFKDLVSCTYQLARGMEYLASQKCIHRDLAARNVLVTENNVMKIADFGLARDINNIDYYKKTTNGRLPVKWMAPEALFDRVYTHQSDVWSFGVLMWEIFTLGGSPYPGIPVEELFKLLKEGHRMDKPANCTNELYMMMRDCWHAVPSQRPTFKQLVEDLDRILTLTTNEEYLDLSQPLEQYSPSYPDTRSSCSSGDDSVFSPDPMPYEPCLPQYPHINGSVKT
Sequence of DAPK3 (human) (O43293 whole entry, looked up): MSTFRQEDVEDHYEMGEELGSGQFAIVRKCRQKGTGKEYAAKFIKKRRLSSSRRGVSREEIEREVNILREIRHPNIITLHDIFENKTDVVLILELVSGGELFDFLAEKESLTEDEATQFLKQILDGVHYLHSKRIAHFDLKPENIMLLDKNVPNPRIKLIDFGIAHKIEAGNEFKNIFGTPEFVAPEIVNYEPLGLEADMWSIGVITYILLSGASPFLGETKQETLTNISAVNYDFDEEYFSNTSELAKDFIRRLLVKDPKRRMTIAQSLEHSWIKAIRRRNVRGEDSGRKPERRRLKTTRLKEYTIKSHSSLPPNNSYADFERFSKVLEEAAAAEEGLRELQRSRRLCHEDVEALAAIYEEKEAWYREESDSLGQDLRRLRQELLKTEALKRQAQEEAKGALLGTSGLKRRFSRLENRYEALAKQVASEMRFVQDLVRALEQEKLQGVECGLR
Sequence of PRKG1 (human) (Q13976 whole entry, looked up): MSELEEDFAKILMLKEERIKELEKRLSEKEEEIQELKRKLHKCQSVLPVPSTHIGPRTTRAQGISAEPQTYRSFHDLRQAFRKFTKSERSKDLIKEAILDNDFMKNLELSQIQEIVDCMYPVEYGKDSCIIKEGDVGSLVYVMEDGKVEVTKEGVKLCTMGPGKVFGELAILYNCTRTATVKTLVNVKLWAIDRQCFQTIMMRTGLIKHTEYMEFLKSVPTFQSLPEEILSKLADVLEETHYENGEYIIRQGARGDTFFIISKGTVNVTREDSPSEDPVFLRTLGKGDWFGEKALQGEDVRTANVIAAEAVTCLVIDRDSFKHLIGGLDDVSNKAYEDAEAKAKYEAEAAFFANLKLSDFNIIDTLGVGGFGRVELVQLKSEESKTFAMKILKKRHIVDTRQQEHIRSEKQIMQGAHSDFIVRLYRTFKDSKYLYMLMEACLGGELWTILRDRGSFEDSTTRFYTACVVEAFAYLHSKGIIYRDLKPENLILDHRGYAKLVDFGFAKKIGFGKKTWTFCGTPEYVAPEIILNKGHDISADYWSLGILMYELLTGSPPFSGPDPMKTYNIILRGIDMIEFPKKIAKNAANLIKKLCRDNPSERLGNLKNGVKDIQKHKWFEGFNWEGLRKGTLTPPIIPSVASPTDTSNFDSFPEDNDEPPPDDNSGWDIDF
Sequence of BTK (human) (Q06187 whole entry, looked up): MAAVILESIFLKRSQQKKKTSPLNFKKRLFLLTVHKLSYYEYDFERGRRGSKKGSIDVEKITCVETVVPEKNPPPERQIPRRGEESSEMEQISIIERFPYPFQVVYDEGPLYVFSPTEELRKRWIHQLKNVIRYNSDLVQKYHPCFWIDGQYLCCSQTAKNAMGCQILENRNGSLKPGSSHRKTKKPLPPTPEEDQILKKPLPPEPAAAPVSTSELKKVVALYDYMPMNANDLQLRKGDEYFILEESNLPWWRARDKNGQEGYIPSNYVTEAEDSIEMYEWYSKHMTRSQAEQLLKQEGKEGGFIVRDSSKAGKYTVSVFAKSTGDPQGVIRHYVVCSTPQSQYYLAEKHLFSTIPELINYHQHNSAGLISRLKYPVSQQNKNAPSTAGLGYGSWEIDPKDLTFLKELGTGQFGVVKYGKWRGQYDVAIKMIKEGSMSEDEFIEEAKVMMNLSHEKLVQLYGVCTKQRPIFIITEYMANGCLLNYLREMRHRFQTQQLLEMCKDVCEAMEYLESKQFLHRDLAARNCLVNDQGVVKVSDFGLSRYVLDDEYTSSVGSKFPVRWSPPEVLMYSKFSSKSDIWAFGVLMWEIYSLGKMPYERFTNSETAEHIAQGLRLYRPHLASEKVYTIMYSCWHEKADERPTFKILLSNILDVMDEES
Sequence of DYRK2 (human) (Q92630 whole entry, looked up): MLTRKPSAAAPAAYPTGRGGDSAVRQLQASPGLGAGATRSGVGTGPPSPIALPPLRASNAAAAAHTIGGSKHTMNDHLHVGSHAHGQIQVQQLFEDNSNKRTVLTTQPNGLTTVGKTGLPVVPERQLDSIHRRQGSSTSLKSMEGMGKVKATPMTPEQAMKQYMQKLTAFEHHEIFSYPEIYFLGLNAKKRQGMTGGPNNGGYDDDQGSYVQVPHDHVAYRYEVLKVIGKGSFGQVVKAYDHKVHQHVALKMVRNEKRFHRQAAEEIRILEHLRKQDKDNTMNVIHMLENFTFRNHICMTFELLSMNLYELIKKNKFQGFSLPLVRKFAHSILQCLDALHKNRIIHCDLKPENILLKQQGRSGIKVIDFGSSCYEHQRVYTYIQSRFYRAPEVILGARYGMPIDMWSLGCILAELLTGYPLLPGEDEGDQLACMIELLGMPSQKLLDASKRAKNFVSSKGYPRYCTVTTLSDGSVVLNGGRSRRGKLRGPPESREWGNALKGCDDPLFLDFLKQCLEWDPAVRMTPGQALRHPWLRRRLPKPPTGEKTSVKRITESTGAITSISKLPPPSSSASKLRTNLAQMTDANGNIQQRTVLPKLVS

SMILES: COc1cc2ncnc(Nc3cccc(Cl)c3)c2cc1OC
- residual activity (CHEK2 (human)): 79.7%
- residual activity (FGFR2 (human)): 97.5%
- residual activity (PRKG1 (human)): 93.8% and 95.2%
- residual activity (CSK (human)): 91.1%
- residual activity (DMPK (human)): 102%
- residual activity (PNCK (human)): 89.6%
- residual activity (JAK3 JH1 JH2 (human)): 91.6%
- residual activity (TYRO3 (human)): 96.7%
- residual activity (NEK3 (human)): 84.3%
- residual activity (BTK (human)): 76.7%
- residual activity (MST1R (human)): 87.8%
- residual activity (STK10 (human)): 24.5%
- residual activity (STK3 (human)): 124%
- residual activity (MAP3K8 (human)): 104%
- residual activity (BMX (human)): 88.6%
- residual activity (ULK3 (human)): 77.3%
- residual activity (IRAK4 (human)): 77.7%
- residual activity (SRC (human)): 71.9%
- residual activity (DAPK3 (human)): 94.6%
- residual activity (PLK1 (human)): 105%
- residual activity (GRK4 (human)): 102%
- residual activity (DYRK2 (human)): 84.6%
- residual activity (FER (human)): 77.1%
- residual activity (RPS6KA4 KD2 (human)): 94.5%
- residual activity (EPHB4 (human)): 59.7%
- residual activity (TLK2 (human)): 93.9%
- residual activity (GRK7 (human)): 85.4%
- residual activity (MAPK12 (human)): 98.5%
- residual activity (MYLK (human)): 89%
- residual activity (RPS6KA2 KD1 KD2 (human)): 85.5%
- residual activity (EPHA5 (human)): 68.3%
- residual activity (GSK3B (human)): 98.7%
- residual activity (SGK2 (human)): 97.8%
- residual activity (MLTK (human)): 99.3%
- residual activity (FGFR4 (human)): 78.7%
- residual activity (HIPK1 (human)): 98.7%
- residual activity (AURKA (human)): 93.3%
- residual activity (CDK6 CCND3 (human)): 90.1%
- residual activity (PKN1 (human)): 96.8%

SMILES: O=C1NC(=O)c2c1c1c3ccccc3n3c1c1c2c2ccccc2n1C1CCC3O1
- residual activity (CHEK2 (human)): 13%
- residual activity (FGFR2 (human)): 34.1%
- residual activity (PRKG1 (human)): 35.7% and 41.3%
- residual activity (CSK (human)): 79.7%
- residual activity (DMPK (human)): 98.8%
- residual activity (PNCK (human)): 50.5%
- residual activity (JAK3 JH1 JH2 (human)): 1.87%
- residual activity (TYRO3 (human)): 55.3%
- residual activity (NEK3 (human)): 102%
- residual activity (BTK (human)): 43.3%
- residual activity (MST1R (human)): 87.7%
- residual activity (STK10 (human)): 9.25%
- residual activity (STK3 (human)): 3.22%
- residual activity (MAP3K8 (human)): 94.6%
- residual activity (BMX (human)): 27.5%
- residual activity (ULK3 (human)): 33%
- residual activity (IRAK4 (human)): 14%
- residual activity (SRC (human)): 69.5%
- residual activity (DAPK3 (human)): 24.6%
- residual activity (PLK1 (human)): 50.2%
- residual activity (GRK4 (human)): 77%
- residual activity (DYRK2 (human)): 5.94%
- residual activity (FER (human)): 5.39%
- residual activity (RPS6KA4 KD2 (human)): 12.4%
- residual activity (EPHB4 (human)): 75.4%
- residual activity (TLK2 (human)): 14.1%
- residual activity (GRK7 (human)): 53.4%
- residual activity (MAPK12 (human)): 113%
- residual activity (MYLK (human)): 4.01%
- residual activity (RPS6KA2 KD1 KD2 (human)): 1.33%
- residual activity (EPHA5 (human)): 78.7%
- residual activity (GSK3B (human)): 4.6%
- residual activity (SGK2 (human)): 18.6%
- residual activity (MLTK (human)): 89.7%
- residual activity (FGFR4 (human)): 70.4%
- residual activity (HIPK1 (human)): 93.6%
- residual activity (CSNK2A1 (human)): 16.7%
- residual activity (AURKA (human)): 22.3%
- residual activity (MARK2 (human)): 4.88%
- residual activity (CDK6 CCND3 (human)): 19.9%
- residual activity (PKN1 (human)): 2.68%

SMILES: CNC(=O)c1cc(Oc2ccc(NC(=O)Nc3ccc(Cl)c(C(F)(F)F)c3)cc2)ccn1
- residual activity (CHEK2 (human)): 102%
- residual activity (FGFR2 (human)): 72.7%
- residual activity (PRKG1 (human)): 104% and 88.6%
- residual activity (CSK (human)): 90.3%
- residual activity (DMPK (human)): 93.2%
- residual activity (PNCK (human)): 94.7%
- residual activity (JAK3 JH1 JH2 (human)): 99.4%
- residual activity (TYRO3 (human)): 91.7%
- residual activity (NEK3 (human)): 97.2%
- residual activity (BTK (human)): 102%
- residual activity (MST1R (human)): 97.6%
- residual activity (STK10 (human)): 72.4%
- residual activity (STK3 (human)): 96.9%
- residual activity (MAP3K8 (human)): 93.6%
- residual activity (BMX (human)): 93.3%
- residual activity (ULK3 (human)): 103%
- residual activity (IRAK4 (human)): 99.6%
- residual activity (DAPK3 (human)): 92.9%
- residual activity (PLK1 (human)): 98.1%
- residual activity (GRK4 (human)): 103%
- residual activity (DYRK2 (human)): 98.9%
- residual activity (FER (human)): 101%
- residual activity (RPS6KA4 KD2 (human)): 97.7%
- residual activity (TLK2 (human)): 84.8%
- residual activity (GRK7 (human)): 97.3%
- residual activity (MAPK12 (human)): 94.2%
- residual activity (MYLK (human)): 93.7%
- residual activity (RPS6KA2 KD1 KD2 (human)): 93.3%
- residual activity (EPHA5 (human)): 99.4%
- residual activity (GSK3B (human)): 101%
- residual activity (SGK2 (human)): 103%
- residual activity (MLTK (human)): 16.7%
- residual activity (LYN (human)): 88.1% and 98.8%
- residual activity (FGFR4 (human)): 104%
- residual activity (HIPK1 (human)): 99.7%
- residual activity (CSNK2A1 (human)): 108%
- residual activity (AURKA (human)): 103%
- residual activity (MARK2 (human)): 94.9%
- residual activity (CDK6 CCND3 (human)): 104%
- residual activity (PKN1 (human)): 106%
